The target in assay [1] is Calcium/calmodulin-dependent protein kinase type 1 (Homo sapiens, UniProt Q14012). The assay is classed as functional.
Assay [2] addresses T1, Histone-lysine N-methyltransferase NSD2 (Homo sapiens, UniProt O96028).
T1 sequence (O96028 whole entry): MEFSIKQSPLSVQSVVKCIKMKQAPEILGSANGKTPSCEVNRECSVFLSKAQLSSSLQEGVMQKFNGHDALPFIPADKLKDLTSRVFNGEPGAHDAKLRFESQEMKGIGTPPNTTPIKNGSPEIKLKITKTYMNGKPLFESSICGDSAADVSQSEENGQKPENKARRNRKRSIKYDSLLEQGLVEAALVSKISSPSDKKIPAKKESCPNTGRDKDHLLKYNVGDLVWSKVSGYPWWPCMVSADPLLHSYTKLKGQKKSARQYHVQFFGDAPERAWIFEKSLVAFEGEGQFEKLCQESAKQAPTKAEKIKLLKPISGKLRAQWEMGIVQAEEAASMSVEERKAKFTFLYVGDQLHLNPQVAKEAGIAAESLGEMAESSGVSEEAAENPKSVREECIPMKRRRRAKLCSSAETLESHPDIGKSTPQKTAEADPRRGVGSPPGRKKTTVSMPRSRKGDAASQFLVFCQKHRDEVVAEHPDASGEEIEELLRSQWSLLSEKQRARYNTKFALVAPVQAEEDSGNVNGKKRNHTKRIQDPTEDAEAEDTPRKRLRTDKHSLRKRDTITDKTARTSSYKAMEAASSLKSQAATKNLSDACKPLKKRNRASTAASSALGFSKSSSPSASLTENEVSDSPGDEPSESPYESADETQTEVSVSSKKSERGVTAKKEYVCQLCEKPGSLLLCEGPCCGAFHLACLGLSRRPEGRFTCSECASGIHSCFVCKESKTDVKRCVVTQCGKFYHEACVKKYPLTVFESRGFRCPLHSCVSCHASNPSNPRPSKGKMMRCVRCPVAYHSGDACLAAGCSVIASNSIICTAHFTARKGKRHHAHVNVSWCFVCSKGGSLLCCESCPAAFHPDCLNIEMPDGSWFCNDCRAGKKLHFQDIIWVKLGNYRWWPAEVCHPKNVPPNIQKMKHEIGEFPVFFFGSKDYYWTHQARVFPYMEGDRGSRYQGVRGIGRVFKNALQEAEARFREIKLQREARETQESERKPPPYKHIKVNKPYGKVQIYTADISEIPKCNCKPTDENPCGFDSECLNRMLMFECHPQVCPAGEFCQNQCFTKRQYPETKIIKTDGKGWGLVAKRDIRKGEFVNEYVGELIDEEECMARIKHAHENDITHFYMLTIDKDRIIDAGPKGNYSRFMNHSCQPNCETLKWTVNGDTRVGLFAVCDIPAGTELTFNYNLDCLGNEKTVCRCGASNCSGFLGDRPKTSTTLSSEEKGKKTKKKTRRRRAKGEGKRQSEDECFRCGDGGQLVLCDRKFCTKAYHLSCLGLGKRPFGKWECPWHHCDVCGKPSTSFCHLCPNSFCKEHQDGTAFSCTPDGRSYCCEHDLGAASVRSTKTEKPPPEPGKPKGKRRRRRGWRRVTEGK
Type of assay: biochemical.

Activity calls are given as the source filed them. Some results are limits rather than exact numbers.

The text below walks through data of ChEMBL document CHEMBL1201862, “PubChem BioAssay data set” (2004).

Chain of Calcium/calmodulin-dependent protein kinase type 1 (Q14012 whole entry): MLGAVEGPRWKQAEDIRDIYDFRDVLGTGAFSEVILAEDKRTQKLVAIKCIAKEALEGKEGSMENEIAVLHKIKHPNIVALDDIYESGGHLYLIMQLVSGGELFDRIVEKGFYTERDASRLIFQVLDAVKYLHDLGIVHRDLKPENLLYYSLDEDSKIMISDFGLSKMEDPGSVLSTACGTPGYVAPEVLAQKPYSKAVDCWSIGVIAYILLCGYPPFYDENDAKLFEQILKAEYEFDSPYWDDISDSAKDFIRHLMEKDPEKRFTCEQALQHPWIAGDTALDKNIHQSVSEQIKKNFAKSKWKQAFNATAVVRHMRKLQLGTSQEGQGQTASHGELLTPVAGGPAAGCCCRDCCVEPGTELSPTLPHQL

Broadly, the Ki is the dissociation constant of the complex between target and ligand, obtained from inhibition or displacement. Take `CS(=O)(=O)N(Cc1ccc2[nH]c(=O)c3cccn3c2c1)C1CC1`: in assay [1], the Ki is > 5.01 µM (inactive).
As usually defined, the AC50 is the concentration giving half of the maximal activity seen. In the case of `OCC[n+]1c2ccccc2nc2ccc(N3CCOCC3)cc21`, the AC50 in assay [2] was 6.78 µM (active).
